Measurements as given in patent publication US20100204340A1 (priority 2009, published 2010).
Blank lines part the entries; values can stand above or below the compound they belong to.

Columns and labels:
[1] = test system: adipocyte differentiation; conditions: prior art, Biochem Biophys Res Commun 372 (2008) 108-113; cited from earlier work
[2] = Pharmacokinetics in serum and urine upon oral administration; format: in vivo, rats; conditions: rats, oral, 100 mg/kg body weight
Method: The compound in its free and conjugated form is freely absorbed into systemic circulation with the glucoronide detected up to 72 hours.
(FIG. 4). The compound in its free and conjugated form appears in systemic circulation within 15 minutes of administration.

SIRT1 polypeptide = molecular target: T1, SIRT1 polypeptide (Homo sapiens, UniProt Q96EB6); assay: SIRT 1 Direct fluorescent Screening Assay kit (Cayman); format: biochemical; conditions: read-out: Percentage SIRT 1 modulation; for activation at 1 µg/mL: 1 μg/ml; for activation at 10 µg/mL: 10 μg/ml; for activation at 50 µg/mL: 50 μg/ml; for activation at 100 µg/mL: 100 μg/ml; for activation at 250 µg/mL: 250 μg/ml
T1 construct: purchased Cayman Chemical Company 10010401
T1 sequence (Q96EB6 1-747): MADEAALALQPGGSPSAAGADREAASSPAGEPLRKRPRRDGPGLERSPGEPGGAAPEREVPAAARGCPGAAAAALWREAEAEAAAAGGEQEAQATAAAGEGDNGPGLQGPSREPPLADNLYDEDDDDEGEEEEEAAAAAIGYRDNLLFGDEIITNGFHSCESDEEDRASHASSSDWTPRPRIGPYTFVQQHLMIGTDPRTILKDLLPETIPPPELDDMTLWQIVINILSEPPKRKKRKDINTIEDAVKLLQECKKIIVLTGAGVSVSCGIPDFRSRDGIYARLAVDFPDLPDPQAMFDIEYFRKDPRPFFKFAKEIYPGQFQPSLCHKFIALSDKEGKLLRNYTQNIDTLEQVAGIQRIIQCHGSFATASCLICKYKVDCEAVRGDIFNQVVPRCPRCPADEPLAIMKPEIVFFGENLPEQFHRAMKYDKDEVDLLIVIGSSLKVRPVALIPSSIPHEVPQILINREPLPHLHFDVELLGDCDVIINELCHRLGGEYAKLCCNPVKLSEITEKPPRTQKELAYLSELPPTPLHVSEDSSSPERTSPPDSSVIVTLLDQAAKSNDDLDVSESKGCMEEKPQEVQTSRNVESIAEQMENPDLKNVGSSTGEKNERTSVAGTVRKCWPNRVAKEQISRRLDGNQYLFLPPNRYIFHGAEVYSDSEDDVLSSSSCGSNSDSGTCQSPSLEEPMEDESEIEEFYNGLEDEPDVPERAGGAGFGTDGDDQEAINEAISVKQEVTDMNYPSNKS
Method: SIRT-1 activation/inhibition was measured using the SIRT 1 Direct fluorescent Screening Assay kit (Catalog No. 10010401) and instructions provided therein of Cayman Chemical Company, 1180 East Ellsworth Road, Ann Arbor, Mich. 48108 USA. (http://www.caymanchem.com/pdfs/10010401.pdf)

3T3-L1 cells = conditions: cited from earlier work

Structure (SMILES): COc1c(O)cc(C=Cc2ccccc2)cc1O [3,5-dihydroxy-4-methoxystilbene]
- Effect on adipocyte differentiation / adipogenesis [1]: no effect on adipogenesis

Structure (SMILES): CC(=O)O.Cc1c(O)cc(C=Cc2ccccc2)cc1O [3,5-dihydroxy-4-methylstilbene acetate]
- Effect on adipocyte differentiation / adipogenesis [1]: no effect on adipogenesis

Structure (SMILES): COc1ccc(C=Cc2cc(O)cc(O)c2)cc1 [3,5-dihydroxy-40-methoxystilbene]
- Effect on adipocyte differentiation / adipogenesis [1]: no effect on adipogenesis

Structure (SMILES): Oc1cc(O)cc(/C=C/c2c(O)cccc2O)c1 [Gnetol, 2,3′,5′,6-tetrahydroxy-trans-stilbene]
- Oral bioavailability (free form and glucoronide) ([2]; serum): orally bioavailable
- Urinary excretion form ([2]; urine): excreted predominantly as glucoronides in the urine

Structure (SMILES): Oc1cc(O)cc(/C=C/c2ccc(O)cc2O)c1 [Oxyresveratrol, trans-2,3′,4,5′-tetrahydroxystilbene]
- activation at 1 µg/mL (SIRT1 polypeptide): 77.8%
- activation at 10 µg/mL (SIRT1 polypeptide): 24.4%
- activation at 50 µg/mL (SIRT1 polypeptide): 60%
- activation at 100 µg/mL (SIRT1 polypeptide): 202%
- activation at 250 µg/mL (SIRT1 polypeptide): 298%

- activation at 1 µg/mL (SIRT1 polypeptide): 2.22%
- activation at 10 µg/mL (SIRT1 polypeptide): 11.1%
- activation at 50 µg/mL (SIRT1 polypeptide): 53.3%
- activation at 100 µg/mL (SIRT1 polypeptide): 113%
- activation at 250 µg/mL (SIRT1 polypeptide): 231%
Structure (SMILES): COc1cc(C=Cc2ccc(O)cc2)cc(OC)c1 [Pterostilbene, 3,5-dimethoxy-4′-hydroxystilbene]
- IC50 (3T3-L1 cells; approximate conversion of 23.9 μg/ml, read-out: Reported IC50 (adipogenesis), converted): ~96 µM
- Reported IC50 (adipogenesis) (3T3-L1 cells; reported, Remsberg et al., 3T3-L1): 23.9 mg/L

- activation at 1 µg/mL (SIRT1 polypeptide): 64.4%
Structure (SMILES): CC(NC(=O)c1ccccc1/N=C/c1c(O)ccc2ccccc12)c1ccccc1 (stereo not shown) [Sirtinol, 2-[(2-Hydroxynaphthalen-1-ylmethylene)amino]-N-(1-phenyl-ethyl)•benzamide]

Structure (SMILES): Oc1ccc([C@H]2c3c(O)cc(O)cc3[C@H]3c4c(cc(O)cc4[C@@H]2c2cc(/C=C/c4cc(O)cc5c4[C@H](c4cc(O)cc(O)c4)[C@@H](c4ccc(O)cc4)O5)ccc2O)O[C@@H]3c2ccc(O)cc2)cc1 [Vitisin A]
- Effect on adipocyte differentiation / adipogenesis [1]: inhibited adipocyte differentiation most effectively

Structure (SMILES): Oc1ccc(/C=C/c2cc(O)cc3c2[C@@H](c2cc(O)cc(O)c2)[C@H](c2ccc(O)cc2)O3)cc1 [e-viniferin]
- Effect on adipocyte differentiation / adipogenesis [1]: no effect on adipogenesis

Structure (SMILES): CC(=O)Oc1ccc(C=Cc2cc(OC(C)=O)cc(OC(C)=O)c2)cc1 [resveratrol triacetate]
- Effect on adipocyte differentiation / adipogenesis [1]: no effect on adipogenesis

Structure (SMILES): OC[C@H]1O[C@@H](Oc2cc(O)cc(/C=C/c3ccc(O)cc3)c2)[C@H](O)[C@@H](O)[C@@H]1O [resveratrol-3-O-B-D-glucoside]
- Effect on adipocyte differentiation / adipogenesis [1]: no effect on adipogenesis

Structure (SMILES): CC(=O)OCC1OC(Oc2cc(C=Cc3ccc(OC(C)=O)cc3)cc(OC(C)=O)c2)C(OC(C)=O)C(OC(C)=O)C1OC(C)=O (stereo not shown) [resveratrol-3-O-Glu hexaacetate]
- Effect on adipocyte differentiation / adipogenesis [1]: no effect on adipogenesis

Structure (SMILES): COc1ccc(C=Cc2cc(OC(C)=O)cc(OC3OC(COC(C)=O)C(OC(C)=O)C(OC(C)=O)C3OC(C)=O)c2)cc1OC(C)=O (stereo not shown) [rhaponticin hexaacetate]
- Effect on adipocyte differentiation / adipogenesis [1]: no effect on adipogenesis

Structure (SMILES): COc1ccc(/C=C/c2cc(O)cc(O[C@@H]3O[C@H](CO)[C@@H](O)[C@H](O)[C@H]3O)c2)cc1O [rhaponticin]
- Effect on adipocyte differentiation / adipogenesis [1]: no effect on adipogenesis
